Values after ≈ are worked out from the molar mass of the structure shown.
Experiments:
UTI89 [1] = assay: Mouse model of acute UTI, bladder bacterial CFU after UTI89 infection; format: in vivo, Escherichia coli; details: UTI89 incubated with 5 mM compound prior to inoculation into bladders; 6 hours post-infection
Method: The efficacy of in vivo mannoside treatment was evaluated after orally dosing animals with 50 mg/kg of mannosides ZFH-4269 (FIG. 1A), ZFH-5254 (FIG. 1B) and ZFH-5240 (FIG. 1C) or DMSO or PBS 30 min prior to infecting with UTI89. At 6 hours post-infection (hpi) the bladders were removed and total bacterial CFUs were quantitated. […] Next, analogs of 254 were evaluated in the same mouse model of urinary tract infection. Animals were orally dosed with 25 mg/kg of mannosides ZFH-4269 (FIG. 2A), 1CJ68 (FIG. 2B) and 1CJ70 (FIG. 2C) in 10% cyclodextrin or 10% cyclodextrin 30 min prior to infecting with UT189.
The efficacy of in vivo mannoside treatment was evaluated after orally dosing animals with 25 mg/kg of mannosides ZFH269, Prodrug FIM-4269, ZFH-5254, and ZFH-5240 in 10% cyclodextrin or 10% cyclodextrin 30 min prior to infecting with UTI89. At 6 hours post-infection (hpi) the bladders were removed and total bacterial CFUs were quantitated. […] Next, several different prodrugs were evaluated in the same mouse model of urinary tract infection. Animals were orally dosed with 25 mg/kg of mannosides ZFH-4269, prodrug FIM-1233 (FIG. 8B), prodrug FIM-6123 (FIG. 8C) and prodrug 269 in 10% cyclodextrin or 10% cyclodextrin 30 min prior to infecting with UT189.
(§1) The FimH-mannose interaction was further investigated in an effort to develop potential ligand-based antagonists of UTIs. […] The non-reducing Man4 anchors into the mannose-binding pocket while the GlcNAc folds over Thr51 allowing specific interactions with a hydrophobic tyrosine gate. Heptyl mannoside mimics the GlcNAc tail of oligomannose-3 and extends it further to increase interactions outside the binding pocket resulting in high affinity binding (Kd=5 nM). Based on the high affinity of heptyl mannose for FimH, the ability of heptyl mannose to reduce bacterial infection in our mouse model of UTI was tested. First, biofilm formation as a surrogate for IBCs formed in the bladder was evaluated. […] Thus, UPEC strain UTI89 was incubated with heptyl mannose prior to inoculation into the bladders of mice.
Bacteria were grown under type 1 pili-inducing conditions (2×24 h at 37° C. statically in LB). The bacteria were harvested and resuspended to an OD600 of 0.5 in PBS. Eight-week-old C3H/HeN (Harlan) female mice were anesthetized by inhalation of isoflurane and infected via transurethral catheterization with […] of the bacterial suspension, resulting in 1-2×10^7 inoculum. At 6 hpi, mice were sacrificed by cervical dislocation under anesthesia and the bladders were immediately harvested and processed as described below. All animal studies using mice were approved by the Animal Studies Committee of Washington University (Animal Protocol Number 20100002).
Mannoside ZFH-2056 was administered either IP (5 mg/kg) or orally (100 mg/kg) 30 min prior to inoculation with UTI89. To enumerate the bacteria present, mice were sacrificed at 6 hpi and bladders were aseptically removed and homogenized in 1 ml PBS, serially diluted and plated onto LB agar plates. CFU was enumerated after 16 h of growth at 37° C.

FimH = molecular target: T1, FimH (Escherichia coli, UniProt P08191); assay: Binding affinity to FimH; design: species or system E. coli
T1 construct: endogenous in cells; host or cells: type 1 piliated uropathogenic E. coli (UPEC)
Method: as §1

UPEC biofilm formation = assay: Biofilm assay; format: cell-based, Escherichia coli; details: 1 mM
Method: as §1
UTI89 was grown in LB broth in wells of PVC microtiter plates at 23° C. in the presence of individual mannosides at varying concentrations. After 48 h of growth, wells were rinsed with water and stained with crystal violet for quantification as described. For biofilm disruption activity in PVC plates, UTI89 was grown in LB broth in wells of PVC microtiter plates at 23° C. After 24 h of growth, mannoside was added and biofilms were grown for an additional 16 h. Wells were then rinsed, stained with crystal violet and quantified. […]

PBC-1 = assay: Growth curve / MIC in TMP-SMZ, PBC-1; format: cell-based; details: Escherichia coli; PBC-1, growth curves in TMP-SMZ; read-out: Minimum Inhibition Concentration (MIC)
Method: (§2) Mice were IP treated with 6 30 min prior to inoculation with bacteria and compared to a control group of untreated animals. After inoculation with UTI89 or PBC-1, bacterial CFUs were quantified at 6 hpi.
Mannoside ZFH-2056 was added at 100 μM. Growth curves were performed in a 96-well plate at 37° C. with A600 readings taken every 30 min for 8 h.

[2] = mice, after 3 days of 54 μg/ml TMP and 270 μg/ml SMZ in drinking water
Method: as §2
Water was changed daily for 3 days prior to inoculation with UTI89.

UTI89 [3] = assay: microbe, parasite or virus in culture; details: Escherichia coli

T1 sequence (P08191 22-300): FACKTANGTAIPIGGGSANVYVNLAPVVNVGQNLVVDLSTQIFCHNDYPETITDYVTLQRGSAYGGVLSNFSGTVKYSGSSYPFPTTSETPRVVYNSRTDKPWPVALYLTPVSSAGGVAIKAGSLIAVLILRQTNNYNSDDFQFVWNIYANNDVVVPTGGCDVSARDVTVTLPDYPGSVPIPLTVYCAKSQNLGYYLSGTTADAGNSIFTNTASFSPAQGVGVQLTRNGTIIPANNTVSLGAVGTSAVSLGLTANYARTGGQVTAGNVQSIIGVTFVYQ

SMILES | virulence in mouse model of UTI (UTI89 [1]) | Kd (FimH) | UPEC biofilm formation in vitro (UPEC biofilm formation) | MIC (PBC-1) | TMP concentration in urine [2] | MIC (UTI89 [3])
CCCCCCCO[C@H]1O[C@H](CO)[C@@H](O)[C@H](O)[C@@H]1O [Heptyl mannoside] | significant attenuation of virulence | 5 nM | inhibited UPEC biofilm formation |  |  | 
COc1cc(Cc2cnc(N)nc2N)cc(OC)c1OC [TMP, Trimethoprim] |  |  |  | 256 mg/L (≈ 882 µM) | 9.95 ± 4.36 mg/mL | 0.05 mg/L (≈ 0.172 µM)
